From PubChem BioAssay AID1963837 (Molecular Pharmacology Branch, DTP, NCI, 2024)

Test system: 843126-344-R-J1-PDC complex spheroid viability
Assay: Anticancer human tumor 843126-344-R-J1-PDC patient-derived melanoma cell line growth inhibition [POLQ]
Conditions: curve of first compound; second compound 10 µM
Summary of the method: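 Growth inhibition in 3D: complex spheroids (tumor PDC, HUVEC, MSC) treated with POLQ inhibitor combinations; where Cmax unknown, highest tested concentration 10 microM, except SN-38 at 1 microM.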
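Throughout, for viability, T/C: spheroids exposed to drugs for seven days before readout.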

Structure (SMILES) | IC50
COc1cccc(OCCCN)c1-c1cc(Nc2cnc(C#N)cn2)n[nH]1 + COC1C(OC(N)=O)C(O)C(Oc2ccc3c(O)c(NC(=O)c4ccc(O)c(CC=C(C)C)c4)c(=O)oc3c2C)OC1(C)C | 153 nM
CC1COCCN1c1cc(C2(S(C)(=N)=O)CC2)nc(-c2ccnc3[nH]ccc23)n1 (configuration not stated) + COC1C(OC(N)=O)C(O)C(Oc2ccc3c(O)c(NC(=O)c4ccc(O)c(CC=C(C)C)c4)c(=O)oc3c2C)OC1(C)C | 9690 nM
Cn1ncnc1[C@H]1c2n[nH]c(=O)c3cc(F)cc(c23)N[C@@H]1c1ccc(F)cc1 + COC1C(OC(N)=O)C(O)C(Oc2ccc3c(O)c(NC(=O)c4ccc(O)c(CC=C(C)C)c4)c(=O)oc3c2C)OC1(C)C | > 100 nM
CC1COCCN1c1cc(-c2ccnn2C)c2ccnc(-c3ccn[nH]3)c2n1 (configuration not stated) + COC1C(OC(N)=O)C(O)C(Oc2ccc3c(O)c(NC(=O)c4ccc(O)c(CC=C(C)C)c4)c(=O)oc3c2C)OC1(C)C | 1100 nM
COc1ccc([C@@H](O)c2cc(-c3ncnc4cc(N5CCOCC5)ccc34)c(F)cc2Cl)nn1 + Nc1ccc(C#CCN(C(=O)Cc2ncc(C(F)(F)F)cc2C(F)(F)F)c2ccc(F)cc2)nn1 | > 10000 nM

Same assay, conditions: second compound 0.0316 µM; first compound 0.000316 µM; stronger effect = lower value

Structure (SMILES) | viability, T/C
Cn1ncnc1[C@H]1c2n[nH]c(=O)c3cc(F)cc(c23)N[C@@H]1c1ccc(F)cc1 + COC1C(OC(N)=O)C(O)C(Oc2ccc3c(O)c(NC(=O)c4ccc(O)c(CC=C(C)C)c4)c(=O)oc3c2C)OC1(C)C | 83.3%

Same assay, conditions: second compound 0.0316 µM; first compound 0.001 µM; stronger effect = lower value

Structure (SMILES) | viability, T/C
Cn1ncnc1[C@H]1c2n[nH]c(=O)c3cc(F)cc(c23)N[C@@H]1c1ccc(F)cc1 + COC1C(OC(N)=O)C(O)C(Oc2ccc3c(O)c(NC(=O)c4ccc(O)c(CC=C(C)C)c4)c(=O)oc3c2C)OC1(C)C | 87.8%

Same assay, conditions: second compound 0.0316 µM; first compound 0.00316 µM; stronger effect = lower value

Structure (SMILES) | viability, T/C
COc1cccc(OCCCN)c1-c1cc(Nc2cnc(C#N)cn2)n[nH]1 + COC1C(OC(N)=O)C(O)C(Oc2ccc3c(O)c(NC(=O)c4ccc(O)c(CC=C(C)C)c4)c(=O)oc3c2C)OC1(C)C | 78.6%
Cn1ncnc1[C@H]1c2n[nH]c(=O)c3cc(F)cc(c23)N[C@@H]1c1ccc(F)cc1 + COC1C(OC(N)=O)C(O)C(Oc2ccc3c(O)c(NC(=O)c4ccc(O)c(CC=C(C)C)c4)c(=O)oc3c2C)OC1(C)C | 108%

Same assay, conditions: second compound 0.0316 µM; first compound 0.01 µM; stronger effect = lower value

Structure (SMILES) | viability, T/C
COc1cccc(OCCCN)c1-c1cc(Nc2cnc(C#N)cn2)n[nH]1 + COC1C(OC(N)=O)C(O)C(Oc2ccc3c(O)c(NC(=O)c4ccc(O)c(CC=C(C)C)c4)c(=O)oc3c2C)OC1(C)C | 85.6%
Cn1ncnc1[C@H]1c2n[nH]c(=O)c3cc(F)cc(c23)N[C@@H]1c1ccc(F)cc1 + COC1C(OC(N)=O)C(O)C(Oc2ccc3c(O)c(NC(=O)c4ccc(O)c(CC=C(C)C)c4)c(=O)oc3c2C)OC1(C)C | 106%

Same assay, conditions: second compound 0.0316 µM; first compound 0.0316 µM; stronger effect = lower value

Structure (SMILES) | viability, T/C
COc1cc(C2c3cc4c(cc3C(OC3OC5COC(C)OC5C(O)C3O)C3COC(=O)C23)OCO4)cc(OC)c1O (configuration not stated) + Cc1cccc(N(C)C(=O)C2C(O)CCN2c2nc(C)cc(C(F)(F)F)c2C#N)c1 | 86.5%
COc1cccc(OCCCN)c1-c1cc(Nc2cnc(C#N)cn2)n[nH]1 + COC1C(OC(N)=O)C(O)C(Oc2ccc3c(O)c(NC(=O)c4ccc(O)c(CC=C(C)C)c4)c(=O)oc3c2C)OC1(C)C | 77.7%
CC1COCCN1c1cc(C2(S(C)(=N)=O)CC2)nc(-c2ccnc3[nH]ccc23)n1 (configuration not stated) + COC1C(OC(N)=O)C(O)C(Oc2ccc3c(O)c(NC(=O)c4ccc(O)c(CC=C(C)C)c4)c(=O)oc3c2C)OC1(C)C | 99%
Cn1ncnc1[C@H]1c2n[nH]c(=O)c3cc(F)cc(c23)N[C@@H]1c1ccc(F)cc1 + COC1C(OC(N)=O)C(O)C(Oc2ccc3c(O)c(NC(=O)c4ccc(O)c(CC=C(C)C)c4)c(=O)oc3c2C)OC1(C)C | 97.8%
CC1COCCN1c1cc(-c2ccnn2C)c2ccnc(-c3ccn[nH]3)c2n1 (configuration not stated) + COC1C(OC(N)=O)C(O)C(Oc2ccc3c(O)c(NC(=O)c4ccc(O)c(CC=C(C)C)c4)c(=O)oc3c2C)OC1(C)C | 98.7%
COc1ccc([C@@H](O)c2cc(-c3ncnc4cc(N5CCOCC5)ccc34)c(F)cc2Cl)nn1 + Nc1ccc(C#CCN(C(=O)Cc2ncc(C(F)(F)F)cc2C(F)(F)F)c2ccc(F)cc2)nn1 | 95.5%

Same assay, conditions: second compound 0.0316 µM; first compound 0.1 µM; stronger effect = lower value

Structure (SMILES) | viability, T/C
COc1cc(C2c3cc4c(cc3C(OC3OC5COC(C)OC5C(O)C3O)C3COC(=O)C23)OCO4)cc(OC)c1O (configuration not stated) + Cc1cccc(N(C)C(=O)C2C(O)CCN2c2nc(C)cc(C(F)(F)F)c2C#N)c1 | 81.5%
COc1cccc(OCCCN)c1-c1cc(Nc2cnc(C#N)cn2)n[nH]1 + COC1C(OC(N)=O)C(O)C(Oc2ccc3c(O)c(NC(=O)c4ccc(O)c(CC=C(C)C)c4)c(=O)oc3c2C)OC1(C)C | 45.8%
CC1COCCN1c1cc(C2(S(C)(=N)=O)CC2)nc(-c2ccnc3[nH]ccc23)n1 (configuration not stated) + COC1C(OC(N)=O)C(O)C(Oc2ccc3c(O)c(NC(=O)c4ccc(O)c(CC=C(C)C)c4)c(=O)oc3c2C)OC1(C)C | 98%
Cn1ncnc1[C@H]1c2n[nH]c(=O)c3cc(F)cc(c23)N[C@@H]1c1ccc(F)cc1 + COC1C(OC(N)=O)C(O)C(Oc2ccc3c(O)c(NC(=O)c4ccc(O)c(CC=C(C)C)c4)c(=O)oc3c2C)OC1(C)C | 76.5%
CC1COCCN1c1cc(-c2ccnn2C)c2ccnc(-c3ccn[nH]3)c2n1 (configuration not stated) + COC1C(OC(N)=O)C(O)C(Oc2ccc3c(O)c(NC(=O)c4ccc(O)c(CC=C(C)C)c4)c(=O)oc3c2C)OC1(C)C | 69.8%
COc1ccc([C@@H](O)c2cc(-c3ncnc4cc(N5CCOCC5)ccc34)c(F)cc2Cl)nn1 + Nc1ccc(C#CCN(C(=O)Cc2ncc(C(F)(F)F)cc2C(F)(F)F)c2ccc(F)cc2)nn1 | 94.9%

Same assay, conditions: second compound 0.0316 µM; first compound 0.316 µM; stronger effect = lower value

Structure (SMILES) | viability, T/C
COc1cc(C2c3cc4c(cc3C(OC3OC5COC(C)OC5C(O)C3O)C3COC(=O)C23)OCO4)cc(OC)c1O (configuration not stated) + Cc1cccc(N(C)C(=O)C2C(O)CCN2c2nc(C)cc(C(F)(F)F)c2C#N)c1 | 77.9%
COc1cccc(OCCCN)c1-c1cc(Nc2cnc(C#N)cn2)n[nH]1 + COC1C(OC(N)=O)C(O)C(Oc2ccc3c(O)c(NC(=O)c4ccc(O)c(CC=C(C)C)c4)c(=O)oc3c2C)OC1(C)C | 46.3%
CC1COCCN1c1cc(C2(S(C)(=N)=O)CC2)nc(-c2ccnc3[nH]ccc23)n1 (configuration not stated) + COC1C(OC(N)=O)C(O)C(Oc2ccc3c(O)c(NC(=O)c4ccc(O)c(CC=C(C)C)c4)c(=O)oc3c2C)OC1(C)C | 110%
CC1COCCN1c1cc(-c2ccnn2C)c2ccnc(-c3ccn[nH]3)c2n1 (configuration not stated) + COC1C(OC(N)=O)C(O)C(Oc2ccc3c(O)c(NC(=O)c4ccc(O)c(CC=C(C)C)c4)c(=O)oc3c2C)OC1(C)C | 66.3%
COc1ccc([C@@H](O)c2cc(-c3ncnc4cc(N5CCOCC5)ccc34)c(F)cc2Cl)nn1 + Nc1ccc(C#CCN(C(=O)Cc2ncc(C(F)(F)F)cc2C(F)(F)F)c2ccc(F)cc2)nn1 | 87.5%

Same assay, conditions: second compound 0.0316 µM; first compound 1 µM; stronger effect = lower value

Structure (SMILES) | viability, T/C
COc1cc(C2c3cc4c(cc3C(OC3OC5COC(C)OC5C(O)C3O)C3COC(=O)C23)OCO4)cc(OC)c1O (configuration not stated) + Cc1cccc(N(C)C(=O)C2C(O)CCN2c2nc(C)cc(C(F)(F)F)c2C#N)c1 | 92.3%
COc1cccc(OCCCN)c1-c1cc(Nc2cnc(C#N)cn2)n[nH]1 + COC1C(OC(N)=O)C(O)C(Oc2ccc3c(O)c(NC(=O)c4ccc(O)c(CC=C(C)C)c4)c(=O)oc3c2C)OC1(C)C | 31.8%
CC1COCCN1c1cc(C2(S(C)(=N)=O)CC2)nc(-c2ccnc3[nH]ccc23)n1 (configuration not stated) + COC1C(OC(N)=O)C(O)C(Oc2ccc3c(O)c(NC(=O)c4ccc(O)c(CC=C(C)C)c4)c(=O)oc3c2C)OC1(C)C | 99.6%
CC1COCCN1c1cc(-c2ccnn2C)c2ccnc(-c3ccn[nH]3)c2n1 (configuration not stated) + COC1C(OC(N)=O)C(O)C(Oc2ccc3c(O)c(NC(=O)c4ccc(O)c(CC=C(C)C)c4)c(=O)oc3c2C)OC1(C)C | 54.2%
